Data published in ChEMBL document CHEMBL1133056, “Structure-activity relationships of halichondrin B analogues: modifications at C.30-C.38” (Bioorg Med Chem Lett, 2000).

Tests used:
P388 [1] = assay: Fold resistance was calculated as IC50 ratio between retrovirally transformed P388/VMDRC.04 and parental P388/S cells; assay type: functional, Mus musculus
P388 [2] = assay: The compound was tested for susceptibility to P-glycoprotein (PgP) mediated drug efflux using murine P388/VMDRC.04 cells under continuous exposure conditions for 3-4 days; assay type: functional, cell-based; settings: Mus musculus
[3] = The compound was tested for its ability to maintain a irreversible mitotic block 10 hr after drug washout using flow cytometric analysis of U937 human histiocytic lymphoma cells; assay type: functional; settings: U-937, 10 h
DLD-1 = assay: The compound was tested for cell growth inhibition against DLD-1 human colon cancer cells under continuous exposure conditions for 3-4 days; assay type: functional, cell-based
P388 [4] = assay: The compound was tested for susceptibility to […] murine P388/S leukemia cells under continuous exposure conditions for 3-4 days; assay type: functional, cell-based; settings: Mus musculus

With C=C1C[C@@H]2CC[C@@]34C[C@@H]5O[C@@H]6[C@@H](O[C@H]7CC[C@H](CC(=O)O[C@@H]8[C@@H](C)[C@@H]9O[C@H](CO)[C@H](O)C[C@@H]9O[C@H]8C[C@H]8O[C@@H](CC[C@@H]1O2)C[C@@H](C)C8=C)O[C@@H]7[C@@H]6O3)[C@H]5O4 the FR (P388 [1]) was 12, the IC50 (P388 [2]) was 8.2 nM and the IC99 [3] was 0.22 µM. The IC50 (DLD-1) was 3.4 nM and the IC50 (P388 [4]) was 0.71 nM.

CC(=O)O[C@H]1C(=O)[C@@]2(C)[C@H]([C@H](OC(=O)c3ccccc3)[C@]3(O)C[C@H](OC(=O)[C@H](O)[C@@H](NC(=O)c4ccccc4)c4ccccc4)C(C)=C1C3(C)C)[C@]1(OC(C)=O)CO[C@@H]1C[C@@H]2O [PACLITAXEL] gave an FR (P388 [1]) of 11, an IC50 (P388 [2]) of 170 nM and an IC99 [3] of 0.23 µM. It also gave an IC50 (DLD-1) of 27 nM and an IC50 (P388 [4]) of 16 nM.

For C=C1C[C@@H]2CC[C@@]34C[C@@H]5O[C@@H]6[C@@H](O[C@H]7CC[C@H](CC(=O)O[C@@H]8[C@@H](C)[C@@H]9O[C@H](CCO)[C@H](O)C[C@@H]9O[C@H]8C[C@H]8O[C@@H](CC[C@@H]1O2)C[C@@H](C)C8=C)O[C@@H]7[C@@H]6O3)[C@H]5O4, the FR (P388 [1]) was 4, the IC50 (P388 [2]) was 8.8 nM and the IC99 [3] was greater than 0.88 µM. For the same compound, the IC50 (DLD-1) was 4.6 nM and the IC50 (P388 [4]) was 2.2 nM.

For C=C1C[C@@H]2CC[C@@]34C[C@@H]5O[C@@H]6[C@@H](O[C@H]7CC[C@H](CC(=O)O[C@@H]8[C@@H](C)[C@@H]9O[C@H](CCOC)[C@H](O)C[C@@H]9O[C@H]8C[C@H]8O[C@@H](CC[C@@H]1O2)C[C@@H](C)C8=C)O[C@@H]7[C@@H]6O3)[C@H]5O4, the FR (P388 [1]) was 2.7, the IC50 (P388 [2]) was 1.5 nM and the IC99 [3] was greater than 0.65 µM. The IC50 (DLD-1) was 1.2 nM and the IC50 (P388 [4]) was 0.55 nM.

For C=C1C[C@@H]2CC[C@@]34C[C@@H]5O[C@@H]6[C@@H](O[C@H]7CC[C@H](CC(=O)O[C@@H]8[C@@H](C)[C@@H]9O[C@@H]%10CC(O)O[C@@H]%10C[C@@H]9O[C@H]8C[C@H]8O[C@@H](CC[C@@H]1O2)C[C@@H](C)C8=C)O[C@@H]7[C@@H]6O3)[C@H]5O4 (some centres not stated), the FR (P388 [1]) was 2.5, the IC50 (P388 [2]) was 3.8 nM and the IC99 [3] was greater than 1 µM. It also gave an IC50 (DLD-1) of 2.1 nM and an IC50 (P388 [4]) of 1.5 nM.

C=C1C[C@@H]2CC[C@@]34C[C@@H]5O[C@@H]6[C@@H](O[C@H]7CC[C@H](CC(=O)O[C@@H]8C[C@@H]9O[C@H](CO)[C@@H](O)C[C@@H]9O[C@H]8C[C@H]8O[C@@H](CC[C@@H]1O2)C[C@@H](C)C8=C)O[C@@H]7[C@@H]6O3)[C@H]5O4 showed an IC50 (DLD-1) of 610 nM.

C=C1C[C@@H]2CCC34C[C@@H]5O[C@@H]6[C@@H](O[C@H]7CC[C@H](CC(=O)O[C@@H]8[C@@H](C)[C@@H]9O[C@@H]%10C[C@]%11(C[C@@H]%12O[C@]%13(C[C@H](C)[C@@H]%14O[C@H]([C@@H](O)C[C@@H](O)CO)C[C@@H]%14O%13)C[C@H](C)[C@@H]%12O%11)O[C@@H]%10C[C@@H]9O[C@H]8C[C@H]8O[C@@H](CC[C@@H]1O2)C[C@@H](C)C8=C)O[C@@H]7[C@@H]6O3)[C@H]5O4 showed an FR (P388 [1]) of 2.8, an IC50 (P388 [2]) of 1.7 nM and an IC99 [3] of 0.025 µM. For the same compound, the IC50 (DLD-1) was 0.74 nM and the IC50 (P388 [4]) was 0.6 nM.

Work on C=C1C[C@@H]2CC[C@@]34C[C@@H]5O[C@@H]6[C@@H](O[C@H]7CC[C@H](CC(=O)O[C@@H]8[C@@H](CC)[C@@H]9O[C@H](CO)[C@@H](O)C[C@@H]9O[C@H]8C[C@H]8O[C@@H](CC[C@@H]1O2)C[C@@H](C)C8=C)O[C@@H]7[C@@H]6O3)[C@H]5O4 yielded an FR (P388 [1]) of 10, an IC50 (P388 [2]) of 16 nM and an IC99 [3] of 1 µM. The IC50 (DLD-1) was 6 nM and the IC50 (P388 [4]) was 1.6 nM.

C=C1C[C@@H]2CC[C@@]34C[C@@H]5O[C@@H]6[C@@H](O[C@H]7CC[C@H](CC(=O)O[C@@H]8[C@@H](C)[C@@H]9O[C@H](CCO)[C@@H](O)C[C@@H]9O[C@H]8C[C@H]8O[C@@H](CC[C@@H]1O2)C[C@@H](C)C8=C)O[C@@H]7[C@@H]6O3)[C@H]5O4 gave an FR (P388 [1]) of 9.4, an IC50 (P388 [2]) of 1.6 nM and an IC99 [3] greater than 1 µM. The IC50 (DLD-1) was 3.6 nM and the IC50 (P388 [4]) was 1.7 nM.

In the case of C=C1C[C@@H]2CC[C@@]34C[C@@H]5O[C@@H]6[C@@H](O[C@H]7CC[C@H](CC(=O)O[C@@H]8[C@@H](C)[C@@H]9O[C@@H]%10CCOC%10(O)C[C@@H]9O[C@H]8C[C@H]8O[C@@H](CC[C@@H]1O2)C[C@@H](C)C8=C)O[C@@H]7[C@@H]6O3)[C@H]5O4 (some centres not stated), the FR (P388 [1]) is reported as 2, the IC50 (P388 [2]) is reported as 6.3 nM and the IC99 [3] is reported as 1 µM. For the same compound, the IC50 (DLD-1) was 5.2 nM and the IC50 (P388 [4]) was 3.1 nM.

C=C1C[C@@H]2CC[C@@]34C[C@@H]5O[C@@H]6[C@@H](O[C@H]7CC[C@H](CC(=O)O[C@@H]8[C@@H](C)[C@@H]9O[C@@H]%10CCO[C@@H]%10C[C@@H]9O[C@H]8C[C@H]8O[C@@H](CC[C@@H]1O2)C[C@@H](C)C8=C)O[C@@H]7[C@@H]6O3)[C@H]5O4 showed an FR (P388 [1]) of 2.1, an IC50 (P388 [2]) of 2.7 nM and an IC99 [3] greater than 1 µM. The IC50 (DLD-1) was 2.6 nM and the IC50 (P388 [4]) was 1.3 nM.

C=C1C[C@@H]2CC[C@@]34C[C@@H]5O[C@@H]6[C@@H](O[C@H]7CC[C@H](CC(=O)O[C@H]8C[C@@H]9O[C@H](CO)[C@@H](O)C[C@@H]9O[C@H]8C[C@H]8O[C@@H](CC[C@@H]1O2)C[C@@H](C)C8=C)O[C@@H]7[C@@H]6O3)[C@H]5O4 gave an IC50 (DLD-1) of 230 nM.
